According to patent US11691969B2, “Pyridazinones as PARP7 inhibtors” (Ribon Therapeutics, Inc., priority 2019, dated 2023):

Legend:
NCI-H1373 cells = assay: Tumor growth in human lung cancer model NCI-H1373 (subcutaneous xenograft); assay type: in vivo; details: 100 mg/kg PO QD*28 days, NCI-H1373 tumors in CB-17 SCID mice, compared to vehicle (50% Labrasol)
Excerpt: Example B. PARP7 Inhibitors' Affect on Tumor Growth in Human Lung Cancer Models NCI-H1373
In this study, CB-17 SCID mice were inoculated subcutaneously at the right flank with NCI-H1373 cells for tumor development. Six days after tumor inoculation, 20 mice with tumor size ranging from 105-160 mm^3 (average tumor size 132 mm^3) were selected and assigned into 2 groups using stratified randomization with 10 mice in each group based upon their tumor volumes. The treatments were started from the next day post randomization (defined randomization day as day 0), and the mice were treated with vehicle (50% Labrasol), the compound of Example 57 (100 mg/kg PO. QD*28 days). The tumor sizes were measured three times per week during the treatment. The entire study was terminated on day 28.
Mean tumor volume and SEM were plotted (FIG. 1). Statistical significance, calculated using two-way ANOVA combined with Bonferroni post-test in which treatment group was compared to vehicle control, is indicated by an asterisk.

PARP7 = PARP7 (Homo sapiens (Human), UniProt Q7Z3E1); assay: TR-FRET assay: displacement of biotinylated Probe A from the TIPARP active site (Enzymatic Assay for Inhibition of PARP7); assay type: binding; details: TIPARP 6 nM, Probe A 2 nM, 25° C.
Chain of PARP7 (Q7Z3E1 whole entry): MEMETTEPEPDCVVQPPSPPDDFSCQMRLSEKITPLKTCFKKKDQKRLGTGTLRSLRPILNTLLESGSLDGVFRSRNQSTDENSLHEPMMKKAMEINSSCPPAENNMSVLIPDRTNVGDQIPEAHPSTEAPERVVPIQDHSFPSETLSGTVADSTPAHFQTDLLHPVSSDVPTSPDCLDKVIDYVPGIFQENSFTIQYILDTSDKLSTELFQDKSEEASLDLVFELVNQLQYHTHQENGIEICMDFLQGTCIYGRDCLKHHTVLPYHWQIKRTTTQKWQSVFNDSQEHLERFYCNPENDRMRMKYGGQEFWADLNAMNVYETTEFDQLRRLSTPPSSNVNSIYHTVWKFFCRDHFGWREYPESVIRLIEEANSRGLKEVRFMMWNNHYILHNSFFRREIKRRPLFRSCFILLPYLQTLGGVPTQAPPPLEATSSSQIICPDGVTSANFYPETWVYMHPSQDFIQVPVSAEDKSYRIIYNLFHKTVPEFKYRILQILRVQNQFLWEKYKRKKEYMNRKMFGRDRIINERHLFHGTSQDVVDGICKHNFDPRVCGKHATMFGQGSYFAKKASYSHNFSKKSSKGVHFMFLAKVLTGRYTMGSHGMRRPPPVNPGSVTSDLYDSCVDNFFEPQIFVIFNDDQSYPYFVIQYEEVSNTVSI
Procedure, shortened: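 6 nM His-tagged TIPARP and 2 nM biotinylated Probe A preincubated with compound 30 min at 25 °C in HEPES pH 8 buffer, then 4 nM ULight-anti-6×His and 0.25 nM Eu-streptavidin added for 30 min more. 665/615 nm ratio normalised to DMSO and 100 μM reference inhibitor controls; IC50 from 4-parameter fit.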

For `C[C@@H](CO[C@@H]1CCN([C@@H]2CCN(c3ncc(C(F)(F)F)cn3)C[C@H]2O)C1=O)Nc1cn[nH]c(=O)c1C(F)(F)F` [Example 57, 5-(((S)-1-(((R)-1-((3R,4R)-3-hydroxy-1-(5-(trifluoromethyl)pyrimidin-2-yl)piperidin-4-yl)-2-oxopyrrolidin-3-yl)oxy)propan-2-yl)amino)-4-(trifluoromethyl)pyridazin-3(2H)-one], the “tumor growth (mean tumor volume)” value (NCI-H1373 cells) was “significantly reduce tumor growth” and the IC50 (PARP7) was < 100 nM.
